Experimental findings from patent US10766869B2, “Triazoles for the treatment of demyelinating dieases” (Vertex Pharmaceuticals Incorporated, priority 2015, dated 2020) are described below.

The test system of this test is primary rat mixed cortical cells. The test is described as follows: In vitro myelination assay (MBP positive myelin strands, fold myelin pixels above background). The test is classed as cell-based. The settings on record: Rattus norvegicus; for fold induction at 1 µM: 1.0 μM compound; for fold induction at 10 µM: 10.0 μM compound. The method, boiled down: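 Read-out is total MBP-positive myelin strand pixels per well, detected by custom ridge-tracing software and reported as fold over untreated baseline. Primary P1 rat mixed cortical cells received compound (1.0 or 10.0 μM) for 14 days, with medium half-replaced on days 6 and 10. Standard deviation was taken across all replicates.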

[1] abbreviates: read-out: Fold myelin pixels above background relative to baseline of no added compound.
Setting [2] is: relative to baseline of no added compound, read-out: Fold myelin pixels above background.
The mark [3] stands for this setting: relative to baseline of no added compound, read-out: Fold myelin pixels above background, 1.0 μM.
The mark [4] stands for this setting: relative to baseline of no added compound, read-out: Fold myelin pixels above background, 10.0 μM.

Where two headings read alike, the source gives them in different places.

`Cc1cc(Nc2ncn(-c3cc(F)cc(F)c3)n2)cc(N[C@H]2C[C@@H](N3CCOCC3)C2)c1` (single isomer, unassigned) [Compound 861, N1-[1-(3,5-difluorophenyl)-1,2,4-triazol-3-yl]-5-methyl-N3-(3-morpholinocyclobutyl)benzene-1,3-diamine]: under setting [1], the fold induction at 1 µM was in the range of 10 to 100 and the fold induction at 10 µM was at most 1.

In the case of `[2H]C([2H])([2H])C(=O)N1C([2H])([2H])C([2H])([2H])N(c2cc(C)cc(Nc3ncn(-c4cc(F)cc(F)c4)n3)c2)C([2H])([2H])C1([2H])[2H]` [Compound 959, 2,2,2-trideuterio-1-[2,2,3,3,5,5,6,6-octadeuterio-4-[3-[[1-(3,5-difluorophenyl)-1,2,4-triazol-3-yl]amino]-5-methyl-phenyl]piperazin-1-yl]ethanone], under setting [1], the fold induction at 1 µM was 1 to 10 and the fold induction at 10 µM was at most 1.

With `Cc1cc(Nc2ncn(-c3cc(F)cc(F)c3)n2)cc(N2CC(C(=O)N3CCCC3)C2)c1` [Compound 773, [1-[3-[[1-(3,5-difluorophenyl)-1,2,4-triazol-3-yl]amino]-5-methyl-phenyl]azetidin-3-yl]-pyrrolidin-1-yl-methanone], under setting [2], the fold induction at 1 µM lay within 10 to 100 and the fold induction at 10 µM is at most 1.

For the molecule `Cc1cc(Nc2ncn(-c3cc(F)cc(F)c3)n2)nc(OC2CCCOC2)c1` (stereo not shown) [Compound 999, N-[1-(3,5-difluorophenyl)-1,2,4-triazol-3-yl]-4-methyl-6-tetrahydropyran-3-yloxy-pyridin-2-amine], under setting [1], the fold induction at 1 µM lay in the range of 1 to 10 and the fold induction at 10 µM is at most 1.

Take `Cc1cc(Nc2ncn(-c3cc(F)cc(F)c3)n2)cc(N2CCN(C)C(C)(C)C2)c1` [Compound 771, 1-(3,5-difluorophenyl)-N-[3-methyl-5-(3,3,4-trimethylpiperazin-1-yl)phenyl]-1,2,4-triazol-3-amine]: under setting [2], the fold induction at 1 µM was 10 to 100 and the fold induction at 10 µM is at most 1.

`Cc1cc(NCC2CC2)cc(Nc2ncn(-c3cc(F)cc(F)c3)n2)c1` [Compound 942, N3-(cyclopropylmethyl)-N1-[1-(3,5-difluorophenyl)-1,2,4-triazol-3-yl]-5-methyl-benzene-1,3-diamine]: under setting [1], the fold induction at 1 µM is 1 to 10 and the fold induction at 10 µM is at most 1.

Consider `[2H]C1([2H])N(C(C)=O)C([2H])([2H])C([2H])([2H])N(c2cc(C)cc(Nc3ncn(-c4cc(F)cc(F)c4)n3)c2)C1([2H])[2H]` [Compound 1044, 1-[2,2,3,3,5,5,6,6-octadeuterio-4-[3-[[1-(3,5-difluorophenyl)-1,2,4-triazol-3-yl]amino]-5-methyl-phenyl]piperazin-1-yl]ethanone], for which, under setting [1], the fold induction at 1 µM was 1 to 10 and the fold induction at 10 µM lay within 1 to 10.

For the molecule `Cc1cc(Nc2ncn(C)n2)cc(Nc2ncn(-c3ccccc3)n2)c1` [Compound 676, 5-methyl-N3-(1-methyl-1,2,4-triazol-3-yl)-N1-(1-phenyl-1,2,4-triazol-3-yl)benzene-1,3-diamine], under setting [2], the fold induction at 1 µM was 10 to 100 and the fold induction at 10 µM is at most 1.

Turning to `Fc1cc(Nc2ncn(-c3cccc(C(F)(F)F)c3)n2)cc(N2CCCC2)c1` [Compound 241, N-(3-fluoro-5-pyrrolidin-1-yl-phenyl)-1-[3-(trifluoromethyl)phenyl]-1,2,4-triazol-3-amine], under setting [3], the fold induction at 1 µM is at most 1. Also, under setting [4], the fold induction at 10 µM was at most 1.

As for `Clc1cc(Nc2ncn(-c3cnccn3)n2)cc(N2CC(N3CCOCC3)C2)c1` [Compound 753, N-[3-chloro-5-(3-morpholinoazetidin-1-yl)phenyl]-1-pyrazin-2-yl-1,2,4-triazol-3-amine], under setting [2], the fold induction at 1 µM is 10 to 100 and the fold induction at 10 µM lay in the range of 100 to 1000.

`Cc1cc(Nc2ncn(-c3cc(F)cc(F)c3)n2)cc(N2CC(N3CCCOCC3)C2)c1` [Compound 808, 1-(3,5-difluorophenyl)-N-[3-methyl-5-[3-(1,4-oxazepan-4-yl)azetidin-1-yl]phenyl]-1,2,4-triazol-3-amine]: under setting [1], the fold induction at 1 µM lay within 10 to 100 and the fold induction at 10 µM was at most 1.

Turning to `Cc1cc(Nc2ncn(-c3cccc(C(F)F)c3)n2)nc(N2CC(N3CCOCC3)C2)c1` [Compound 768, N-[1-[3-(difluoromethyl)phenyl]-1,2,4-triazol-3-yl]-4-methyl-6-(3-morpholinoazetidin-1-yl)pyridin-2-amine], under setting [2], the fold induction at 1 µM is at most 1 and the fold induction at 10 µM was in the range of 1 to 10.

Consider `Cc1cc(Nc2ncn(-c3cc(F)cc(F)c3)n2)c(F)c(N(C)C2COC2)c1` [Compound 969, N3-[1-(3,5-difluorophenyl)-1,2,4-triazol-3-yl]-2-fluoro-N1,5-dimethyl-N1-(oxetan-3-yl)benzene-1,3-diamine], for which, under setting [1], the fold induction at 1 µM lay in the range of 1 to 10 and the fold induction at 10 µM is at most 1.

For the molecule `Cc1cc(Nc2ncn(-c3ccccn3)n2)cc(C2CCCN(C3COC3)C2)c1` (stereo not shown) [Compound 207, N-[3-methyl-5-[1-(oxetan-3-yl)-3-piperidyl]phenyl]-1-(2-pyridyl)-1,2,4-triazol-3-amine], the fold induction at 1 µM under setting [3] was 10 to 100. The fold induction at 10 µM under setting [4] was at most 1.

As to `Fc1cc(Nc2ncn(-c3cccc(F)c3)n2)cc(N2CCN(C3COC3)CC2)c1` [Compound 594, N-[3-fluoro-5-[4-(oxetan-3-yl)piperazin-1-yl]phenyl]-1-(3-fluorophenyl)-1,2,4-triazol-3-amine], under setting [2], the fold induction at 1 µM was in the range of 1 to 10 and the fold induction at 10 µM lay within 1 to 10.

`Cc1cc(Nc2ncn(-c3ccc(C(F)(F)F)cc3)n2)cc(N2CCCC2)c1` [Compound 356, N-(3-methyl-5-pyrrolidin-1-yl-phenyl)-1-[4-(trifluoromethyl)phenyl]-1,2,4-triazol-3-amine]: the fold induction at 1 µM under setting [3] was at most 1. Also, the fold induction at 10 µM under setting [4] was 10 to 100.

For `Fc1cccc(-n2cnc(Nc3cc(C(F)(F)F)cc(N4CCN(C5COC5)CC4)n3)n2)c1` [Compound 545, N-[1-(3-fluorophenyl)-1,2,4-triazol-3-yl]-6-[4-(oxetan-3-yl)piperazin-1-yl]-4-(trifluoromethyl)pyridin-2-amine], under setting [2], the fold induction at 1 µM was 10 to 100 and the fold induction at 10 µM was in the range of 10 to 100.

As for `COCc1cc(-n2cnc(Nc3cc(C)cc(N4CCN(C5COC5)CC4)c3)n2)ncn1` [Compound 364, 1-[6-(methoxymethyl)pyrimidin-4-yl]-N-[3-methyl-5-[4-(oxetan-3-yl)piperazin-1-yl]phenyl]-1,2,4-triazol-3-amine], the fold induction at 1 µM under setting [3] lay within 1 to 10. Also, the fold induction at 10 µM under setting [4] is 10 to 100.

Turning to `N#Cc1cc(Nc2ncn(-c3ccccc3)n2)cc(N2CCOCC2)c1` [Compound 608, 3-morpholino-5-[(1-phenyl-1,2,4-triazol-3-yl)amino]benzonitrile], under setting [2], the fold induction at 1 µM is 10 to 100 and the fold induction at 10 µM was in the range of 1 to 10.

For `Cc1cc(NCCN2CC[S+]([O-])CC2)cc(Nc2ncn(-c3cc(F)cc(F)c3)n2)c1` [Compound 940, N1-[1-(3,5-difluorophenyl)-1,2,4-triazol-3-yl]-5-methyl-N3-[2-(1-oxo-1,4-thiazinan-4-yl)ethyl]benzene-1,3-diamine], under setting [1], the fold induction at 1 µM is 10 to 100 and the fold induction at 10 µM was 1 to 10.
